Data: article PMC7156458, “Synthetic biology based construction of biological activity-related library of fungal decalin-containing diterpenoid pyrones” (Nature Communications, 2020)
Values joined by “and” are separate entries in the source; they are usually repeats but may differ in a detail not shown here. Equal values may be shown once. “Also recorded” adds a separate entry of the source. Read-outs that look alike come from different tables or passages of the source.

Columns and labels:
MCF-7 cells = assay: mammosphere formation assay; format: cell-based, human; conditions: MCF-7, 5 μM
[1] = cytotoxicity in Drosophila DL1 cells; format: cell-based; conditions: Drosophila, DL1 cells (embryonic macrophage-derived), DL1 cells
Protocol: (§1) We screened the DDPs on the Drosophila assay system for cytotoxicity, inhibitory activity of innate immune signalling and insecticidal activity. The cytotoxicity of the DDPs was evaluated using two cell lines, embryonic macrophage-derived DL1 cells[58]–[60] and larval blood cell-derived l(2)mbn cells, and their IC50 values are listed in Supplementary Table 23.

DL1 cells = assay: cytotoxicity in Drosophila DL1 cells; format: cell-based; conditions: DL1 cells; for IC50: Drosophila melanogaster, cytotoxicity
Protocol: as §1

[2] = cytotoxicity in Drosophila l(2)mbn cells; format: cell-based; conditions: Drosophila, l(2)mbn cells (larval blood cell-derived)
Protocol: as §1

l(2)mbn cells = assay: cytotoxicity in Drosophila l(2)mbn cells; format: cell-based; conditions: for Luminescence Raw1: replicate 1; for Luminescence Raw2: replicate 2; for IC50: Drosophila melanogaster, cytotoxicity
Protocol: as §1

[3] = tested on: human immunodeficiency virus-1 (HIV-1); assay: anti-HIV MAGI assay; format: cell-based; conditions: Human immunodeficiency virus 1, MAGI, anti-HIV
Description: (§2) We examined the inhibitory activities of DDPs against various species of bacteria (both gram-negative and gram-positive bacteria), fungi and viruses. […] In contrast, preliminary screening of the DDPs for anti-viral agents with hepatitis B virus (HBV), measles virus (MV), Epstein-Barr virus (EBV), herpes simplex virus (HSV) and human immunodeficiency virus-1 (HIV-1) indicated their selective inhibition of HIV.

[4] = tested on: hepatitis B virus (HBV), measles virus (MV), Epstein-Barr virus (EBV), herpes simplex virus (HSV); assay: preliminary anti-viral screening (other viruses); format: cell-based
Description: as §2

MAGI cells = assay: cytotoxicity in the anti-HIV assay (CC50); format: cell-based; conditions: single determinations
[5] = replicate 1, relative to DMSO 1%, read-out: % viability, viability 1
[6] = replicate 2, relative to DMSO 1%, read-out: % viability, viability 2
[7] = average of two replicates, read-out: IC50 Average
[8] = replicate 1, read-out: IC50 (1)
[9] = replicate 2, read-out: IC50 (2)

SMILES: C=C1CCC2C(C)(CCC=C(C)C)C(O)CCC2(C)C1Cc1c(OC)oc(CO)c(C)c1=O (centres unmarked) [Compound 12]
- effect on sphere formation (MCF-7 cells): clearly inhibited sphere formation; also recorded: strongest effect on sphere formation
- MFE (%) ave (MCF-7 cells; 7 days, mean of 3, control 0.87): 0.21%
- MFE (control = 1) ave (MCF-7 cells; 7 days, relative to control = 1): 0.24
- MFE (%) (MCF-7 cells; 7 days, single replicates): 0.18% and 0.21% and 0.23%
- viability at 0.04 µM [1, 5]: 96.8%
- viability at 0.04 µM [1, 6]: 104%
- viability at 0.2 µM [1, 5]: 86.4%
- viability at 0.2 µM [1, 6]: 86.2%
- viability at 1 µM [1, 5]: 8.66%
- viability at 1 µM [1, 6]: 7.51%
- viability at 4 µM [1, 5]: 5.97%
- viability at 4 µM [1, 6]: 5.72%
- viability at 10 µM [1, 5]: 6.32%
- viability at 10 µM [1, 6]: 6.35%
- viability at 20 µM [1, 5]: 3.83%
- viability at 20 µM [1, 6]: 4.39%
- Luminescence Raw1 (DL1 cells; 0.04 µM, replicate 1): 1994873
- Luminescence Raw2 (DL1 cells; 0.04 µM, replicate 2): 2143826
- Luminescence Raw1 (DL1 cells; 0.2 µM, replicate 1): 1779203
- Luminescence Raw2 (DL1 cells; 0.2 µM, replicate 2): 1776317
- Luminescence Raw1 (DL1 cells; 1 µM, replicate 1): 178477
- Luminescence Raw2 (DL1 cells; 1 µM, replicate 2): 154679
- Luminescence Raw1 (DL1 cells; 4 µM, replicate 1): 122950
- Luminescence Raw2 (DL1 cells; 4 µM, replicate 2): 117902
- Luminescence Raw1 (DL1 cells; 10 µM, replicate 1): 130161
- Luminescence Raw2 (DL1 cells; 10 µM, replicate 2): 130882
- Luminescence Raw1 (DL1 cells; 20 µM, replicate 1): 78962
- Luminescence Raw2 (DL1 cells; 20 µM, replicate 2): 90500
- IC50 (DL1 cells; [7]): 342 nM
- IC50 (DL1 cells; average±SEM, read-out: IC50): 340 ± 30 nM
- IC50 (DL1 cells; [8]): 371 nM
- IC50 (DL1 cells; [9]): 314 nM
- viability at 0.04 µM [2, 5]: 139%
- viability at 0.04 µM [2, 6]: 135%
- viability at 0.2 µM [2, 5]: 156%
- viability at 0.2 µM [2, 6]: 139%
- viability at 1 µM [2, 5]: 112%
- viability at 1 µM [2, 6]: 136%
- viability at 4 µM [2, 5]: 16.2%
- viability at 4 µM [2, 6]: 12.9%
- viability at 10 µM [2, 5]: 7.07%
- viability at 10 µM [2, 6]: 6.84%
- viability at 20 µM [2, 5]: 7.38%
- viability at 20 µM [2, 6]: 6.31%
- Luminescence Raw1 (l(2)mbn cells; 0.04 µM): 3578369
- Luminescence Raw2 (l(2)mbn cells; 0.04 µM): 3458604
- Luminescence Raw1 (l(2)mbn cells; 0.2 µM): 4007302
- Luminescence Raw2 (l(2)mbn cells; 0.2 µM): 3578369
- Luminescence Raw1 (l(2)mbn cells; 1 µM): 2865222
- Luminescence Raw2 (l(2)mbn cells; 1 µM): 3493234
- Luminescence Raw1 (l(2)mbn cells; 4 µM): 415037
- Luminescence Raw2 (l(2)mbn cells; 4 µM): 331384
- Luminescence Raw1 (l(2)mbn cells; 10 µM): 181387
- Luminescence Raw2 (l(2)mbn cells; 10 µM): 175618
- Luminescence Raw1 (l(2)mbn cells; 20 µM): 189320
- Luminescence Raw2 (l(2)mbn cells; 20 µM): 161917
- IC50 (l(2)mbn cells; [7]): 3290 nM
- IC50 (l(2)mbn cells; average±SEM, read-out: IC50): 3290 ± 160 nM
- IC50 (l(2)mbn cells; [8]): 3130 nM
- IC50 (l(2)mbn cells; [9]): 3450 nM
- EC50 ([3]; MAGI assay, read-out: EC50): < 200 nM
- effect on other viruses [4]: without affecting other viruses

SMILES: C=C1CCC2C(C)(CCC=C(C)C)C(O)CCC2(C)C1Cc1c(OC)oc(C)c(C(=O)OC)c1=O (centres unmarked) [Compound 14]
- viability at 0.04 µM [1, 5]: 109%
- viability at 0.04 µM [1, 6]: 115%
- viability at 0.2 µM [1, 5]: 94.8%
- viability at 0.2 µM [1, 6]: 82.2%
- viability at 1 µM [1, 5]: 10.1%
- viability at 1 µM [1, 6]: 8.02%
- viability at 4 µM [1, 5]: 5.72%
- viability at 4 µM [1, 6]: 6.14%
- viability at 10 µM [1, 5]: 6.46%
- viability at 10 µM [1, 6]: 5.9%
- viability at 20 µM [1, 5]: 5.02%
- viability at 20 µM [1, 6]: 4.22%
- Luminescence Raw1 (DL1 cells; 0.04 µM, replicate 1): 2252387
- Luminescence Raw2 (DL1 cells; 0.04 µM, replicate 2): 2365278
- Luminescence Raw1 (DL1 cells; 0.2 µM, replicate 1): 1952676
- Luminescence Raw2 (DL1 cells; 0.2 µM, replicate 2): 1693730
- Luminescence Raw1 (DL1 cells; 1 µM, replicate 1): 208403
- Luminescence Raw2 (DL1 cells; 1 µM, replicate 2): 165136
- Luminescence Raw1 (DL1 cells; 4 µM, replicate 1): 117902
- Luminescence Raw2 (DL1 cells; 4 µM, replicate 2): 126556
- Luminescence Raw1 (DL1 cells; 10 µM, replicate 1): 133046
- Luminescence Raw2 (DL1 cells; 10 µM, replicate 2): 121508
- Luminescence Raw1 (DL1 cells; 20 µM, replicate 1): 103480
- Luminescence Raw2 (DL1 cells; 20 µM, replicate 2): 86894
- IC50 (DL1 cells; [7]): 438 nM
- IC50 (DL1 cells; average±SEM, read-out: IC50): 440 ± 60 nM
- IC50 (DL1 cells; [8]): 502 nM
- IC50 (DL1 cells; [9]): 374 nM
- viability at 0.04 µM [2, 5]: 137%
- viability at 0.04 µM [2, 6]: 114%
- viability at 0.2 µM [2, 5]: 136%
- viability at 0.2 µM [2, 6]: 147%
- viability at 1 µM [2, 5]: 131%
- viability at 1 µM [2, 6]: 146%
- viability at 4 µM [2, 5]: 18.5%
- viability at 4 µM [2, 6]: 16%
- viability at 10 µM [2, 5]: 10.1%
- viability at 10 µM [2, 6]: 9.05%
- viability at 20 µM [2, 5]: 7.49%
- viability at 20 µM [2, 6]: 6.87%
- Luminescence Raw1 (l(2)mbn cells; 0.04 µM): 3506221
- Luminescence Raw2 (l(2)mbn cells; 0.04 µM): 2917163
- Luminescence Raw1 (l(2)mbn cells; 0.2 µM): 3483495
- Luminescence Raw2 (l(2)mbn cells; 0.2 µM): 3765235
- Luminescence Raw1 (l(2)mbn cells; 1 µM): 3358321
- Luminescence Raw2 (l(2)mbn cells; 1 µM): 3748640
- Luminescence Raw1 (l(2)mbn cells; 4 µM): 473811
- Luminescence Raw2 (l(2)mbn cells; 4 µM): 410710
- Luminescence Raw1 (l(2)mbn cells; 10 µM): 260351
- Luminescence Raw2 (l(2)mbn cells; 10 µM): 232227
- Luminescence Raw1 (l(2)mbn cells; 20 µM): 192204
- Luminescence Raw2 (l(2)mbn cells; 20 µM): 176340
- IC50 (l(2)mbn cells; [7]): 3740 nM
- IC50 (l(2)mbn cells; average±SEM, read-out: IC50): 3740 ± 140 nM
- IC50 (l(2)mbn cells; [8]): 3600 nM
- IC50 (l(2)mbn cells; [9]): 3880 nM
- EC50 ([3]; MAGI assay, read-out: EC50): < 200 nM
- EC50 ([3]; average of numeric determinations, read-out: Avg. EC50): 45.7 nM
- Cytotoxicity (MAGI cells): >10 µM
- effect on other viruses [4]: without affecting other viruses
